Results: PubChem BioAssay (NCI)
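Compound exposure: 48 hours, 5 concentrations, 96-well plates. TGI: concentration producing complete growth inhibition.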

How the values were obtained:
Test in all cases: inhibition of tumour cell growth, NCI panel, 48 h
NCI-H460 lung = tested on: NCI-H460 lung
MALME-3M melanoma = tested on: MALME-3M melanoma
HL-60(TB) leukemia = tested on: HL-60(TB) leukemia
TK-10 renal = tested on: TK-10 renal
OVCAR-3 ovarian = tested on: OVCAR-3 ovarian
SF-268 CNS = tested on: SF-268 CNS
NCI-H522 lung = tested on: NCI-H522 lung
HCT-116 colon = tested on: HCT-116 colon
KM20L2 colon = tested on: KM20L2 colon
HCT-15 colon = tested on: HCT-15 colon
DMS 114 small cell lung = tested on: DMS 114 small cell lung
M14 melanoma = tested on: M14 melanoma
U251 CNS = tested on: U251 CNS
UACC-257 melanoma = tested on: UACC-257 melanoma
RXF 393 renal = tested on: RXF 393 renal
COLO 205 colon = tested on: COLO 205 colon
HCC-2998 colon = tested on: HCC-2998 colon
MOLT-4 leukemia = tested on: MOLT-4 leukemia
SNB-19 CNS = tested on: SNB-19 CNS
CCRF-CEM leukemia = tested on: CCRF-CEM leukemia
HOP-92 NSCLC = tested on: HOP-92 NSCLC
ACHN renal = tested on: ACHN renal
DLD-1 colon = tested on: DLD-1 colon
NCI-H226 lung = tested on: NCI-H226 lung
SF-295 CNS = tested on: SF-295 CNS
SNB-78 CNS = tested on: SNB-78 CNS
SN12C renal = tested on: SN12C renal
SK-MEL-2 melanoma = tested on: SK-MEL-2 melanoma
RPMI-8226 leukemia = tested on: RPMI-8226 leukemia
OVCAR-5 ovarian = tested on: OVCAR-5 ovarian
OVCAR-8 ovarian = tested on: OVCAR-8 ovarian
EKVX NSCLC = tested on: EKVX NSCLC
OVCAR-4 ovarian = tested on: OVCAR-4 ovarian
HOP-62 NSCLC = tested on: HOP-62 NSCLC
UACC-62 melanoma = tested on: UACC-62 melanoma
SNB-75 CNS = tested on: SNB-75 CNS
UO-31 renal = tested on: UO-31 renal
A498 renal = tested on: A498 renal
M19-MEL melanoma = tested on: M19-MEL melanoma
HT29 colon = tested on: HT29 colon
NCI-H23 lung = tested on: NCI-H23 lung
KM12 colon = tested on: KM12 colon
CAKI-1 renal = tested on: CAKI-1 renal
HOP-18 NSCLC = tested on: HOP-18 NSCLC
K-562 leukemia = tested on: K-562 leukemia
LXFL 529 NSCLC = tested on: LXFL 529 NSCLC
SF-539 CNS = tested on: SF-539 CNS
SK-MEL-28 melanoma = tested on: SK-MEL-28 melanoma
LOX IMVI melanoma = tested on: LOX IMVI melanoma
A549 NSCLC = tested on: A549 NSCLC
SW-620 colon = tested on: SW-620 colon
RXF-631 renal = tested on: RXF-631 renal
SK-OV-3 ovarian = tested on: SK-OV-3 ovarian
DMS 273 small cell lung = tested on: DMS 273 small cell lung
IGROV1 ovarian = tested on: IGROV1 ovarian
786-0 renal = tested on: 786-0 renal
SK-MEL-5 melanoma = tested on: SK-MEL-5 melanoma
SR leukemia = tested on: SR leukemia
XF 498 CNS = tested on: XF 498 CNS

Cn1ccnc1CCc1ccc(Cl)cc1Cl
TGI (NCI-H460 lung): > 100 µM
TGI (MALME-3M melanoma): > 100 µM
TGI (HL-60(TB) leukemia): > 100 µM
TGI (TK-10 renal): > 100 µM
TGI (OVCAR-3 ovarian): > 100 µM
TGI (SF-268 CNS): > 100 µM
TGI (NCI-H522 lung): > 100 µM
TGI (HCT-116 colon): > 100 µM
TGI (KM20L2 colon): > 100 µM
TGI (HCT-15 colon): > 100 µM
TGI (DMS 114 small cell lung): > 100 µM
TGI (M14 melanoma): > 100 µM
TGI (U251 CNS): > 100 µM
TGI (UACC-257 melanoma): > 100 µM
TGI (RXF 393 renal): > 100 µM
TGI (COLO 205 colon): > 100 µM
TGI (HCC-2998 colon): > 100 µM
TGI (MOLT-4 leukemia): > 100 µM
TGI (SNB-19 CNS): > 100 µM
TGI (CCRF-CEM leukemia): > 100 µM
TGI (HOP-92 NSCLC): > 100 µM
TGI (ACHN renal): > 100 µM
TGI (DLD-1 colon): > 100 µM
TGI (NCI-H226 lung): > 100 µM
TGI (SF-295 CNS): > 100 µM
TGI (SNB-78 CNS): > 100 µM
TGI (SN12C renal): > 100 µM
TGI (SK-MEL-2 melanoma): > 100 µM
TGI (RPMI-8226 leukemia): > 100 µM
TGI (OVCAR-5 ovarian): > 100 µM
TGI (OVCAR-8 ovarian): > 100 µM
TGI (EKVX NSCLC): > 100 µM
TGI (OVCAR-4 ovarian): > 100 µM
TGI (HOP-62 NSCLC): > 100 µM
TGI (UACC-62 melanoma): > 100 µM
TGI (SNB-75 CNS): > 100 µM
TGI (UO-31 renal): > 100 µM
TGI (A498 renal): > 100 µM
TGI (M19-MEL melanoma): > 100 µM
TGI (HT29 colon): > 100 µM
TGI (NCI-H23 lung): > 100 µM
TGI (KM12 colon): > 100 µM
TGI (CAKI-1 renal): > 100 µM
TGI (HOP-18 NSCLC): > 100 µM
TGI (K-562 leukemia): > 100 µM
TGI (LXFL 529 NSCLC): > 100 µM
TGI (SF-539 CNS): > 100 µM
TGI (SK-MEL-28 melanoma): > 100 µM
TGI (LOX IMVI melanoma): > 100 µM
TGI (A549 NSCLC): > 100 µM
TGI (SW-620 colon): > 100 µM
TGI (RXF-631 renal): > 100 µM
TGI (SK-OV-3 ovarian): > 100 µM
TGI (DMS 273 small cell lung): > 100 µM
TGI (IGROV1 ovarian): > 100 µM
TGI (786-0 renal): > 100 µM

COC(=O)C1CC2c3c(c4ccccc4n3C)CC(C1=O)N2C (configuration not stated)
TGI (NCI-H460 lung): > 100 µM
TGI (MALME-3M melanoma): > 100 µM
TGI (HL-60(TB) leukemia): 68.5 µM
TGI (TK-10 renal): > 100 µM
TGI (OVCAR-3 ovarian): > 100 µM
TGI (SF-268 CNS): > 100 µM
TGI (NCI-H522 lung): 34.8 µM
TGI (HCT-116 colon): 92.8 µM
TGI (KM20L2 colon): > 100 µM
TGI (HCT-15 colon): 50.7 µM
TGI (DMS 114 small cell lung): 60.7 µM
TGI (M14 melanoma): > 100 µM
TGI (U251 CNS): > 100 µM
TGI (UACC-257 melanoma): > 100 µM
TGI (COLO 205 colon): 32.5 µM
TGI (HCC-2998 colon): > 100 µM
TGI (MOLT-4 leukemia): > 100 µM
TGI (SNB-19 CNS): > 100 µM
TGI (SK-MEL-5 melanoma): > 100 µM
TGI (CCRF-CEM leukemia): > 100 µM
TGI (HOP-92 NSCLC): > 100 µM
TGI (ACHN renal): > 100 µM
TGI (DLD-1 colon): > 100 µM
TGI (NCI-H226 lung): > 100 µM
TGI (SF-295 CNS): > 100 µM
TGI (SNB-78 CNS): > 100 µM
TGI (SN12C renal): > 100 µM
TGI (SK-MEL-2 melanoma): > 100 µM
TGI (OVCAR-5 ovarian): > 100 µM
TGI (OVCAR-8 ovarian): > 100 µM
TGI (EKVX NSCLC): > 100 µM
TGI (OVCAR-4 ovarian): > 100 µM
TGI (UACC-62 melanoma): > 100 µM
TGI (SNB-75 CNS): > 100 µM
TGI (UO-31 renal): 69 µM
TGI (A498 renal): > 100 µM
TGI (M19-MEL melanoma): > 100 µM
TGI (HT29 colon): > 100 µM
TGI (NCI-H23 lung): > 100 µM
TGI (KM12 colon): > 100 µM
TGI (CAKI-1 renal): > 100 µM
TGI (HOP-18 NSCLC): > 100 µM
TGI (SR leukemia): 87.6 µM
TGI (K-562 leukemia): > 100 µM
TGI (LXFL 529 NSCLC): > 100 µM
TGI (SF-539 CNS): > 100 µM
TGI (SK-MEL-28 melanoma): > 100 µM
TGI (LOX IMVI melanoma): > 100 µM
TGI (A549 NSCLC): > 100 µM
TGI (SW-620 colon): > 100 µM
TGI (RXF-631 renal): > 100 µM
TGI (SK-OV-3 ovarian): > 100 µM
TGI (DMS 273 small cell lung): 43.6 µM
TGI (IGROV1 ovarian): > 100 µM
TGI (786-0 renal): > 100 µM

Clc1ccc(OCc2nnc3n2N=C(c2ccccc2)CS3)cc1
TGI (NCI-H460 lung): 30.5 µM
TGI (MALME-3M melanoma): 34.5 µM
TGI (HL-60(TB) leukemia): 30.4 µM
TGI (TK-10 renal): 53.4 µM
TGI (OVCAR-3 ovarian): 32.4 µM
TGI (SF-268 CNS): 39.9 µM
TGI (XF 498 CNS): 30.9 µM
TGI (NCI-H522 lung): 36.5 µM
TGI (HCT-116 colon): 23.3 µM
TGI (KM20L2 colon): 30.6 µM
TGI (HCT-15 colon): 31 µM
TGI (M14 melanoma): 41 µM
TGI (U251 CNS): 31.9 µM
TGI (UACC-257 melanoma): 29.3 µM
TGI (COLO 205 colon): 30.8 µM
TGI (HCC-2998 colon): 32.1 µM
TGI (MOLT-4 leukemia): 62.5 µM
TGI (SNB-19 CNS): 46.3 µM
TGI (HOP-92 NSCLC): 36.7 µM
TGI (ACHN renal): 37.5 µM
TGI (DLD-1 colon): 44 µM
TGI (NCI-H226 lung): 39.9 µM
TGI (SF-295 CNS): 36.7 µM
TGI (SN12C renal): 25.8 µM
TGI (SK-MEL-2 melanoma): 34.4 µM
TGI (RPMI-8226 leukemia): 32.7 µM
TGI (OVCAR-5 ovarian): 36.1 µM
TGI (OVCAR-8 ovarian): 27.3 µM
TGI (OVCAR-4 ovarian): 30.6 µM
TGI (HOP-62 NSCLC): 34.8 µM
TGI (UACC-62 melanoma): 28.4 µM
TGI (SNB-75 CNS): 85.7 µM
TGI (UO-31 renal): 20.8 µM
TGI (M19-MEL melanoma): 33.1 µM
TGI (HT29 colon): 29.8 µM
TGI (NCI-H23 lung): 25.2 µM
TGI (KM12 colon): 31.6 µM
TGI (CAKI-1 renal): 61.8 µM
TGI (SR leukemia): 29.5 µM
TGI (K-562 leukemia): 42.8 µM
TGI (LXFL 529 NSCLC): 40.7 µM
TGI (SF-539 CNS): 33.3 µM
TGI (SK-MEL-28 melanoma): 38.2 µM
TGI (LOX IMVI melanoma): 30.8 µM
TGI (A549 NSCLC): 35.1 µM
TGI (SW-620 colon): 32.9 µM
TGI (RXF-631 renal): 31.1 µM
TGI (SK-OV-3 ovarian): 44.7 µM
TGI (DMS 273 small cell lung): 30.5 µM
TGI (IGROV1 ovarian): 23.5 µM
TGI (786-0 renal): 30.2 µM
